Columns and labels:
Rattus rattus (bush rat) = assay: Topical administration to live captured bush rats (Example 4 study); assay type: in vivo
Description: Three animals of the species Rattus rattus (also known as the bush rat) were live captured. They were placed in separate enclosures with on demand food and water supplies, and nesting material of dry hay. After 14 days of acclimatization to these conditions, the animals were each treated with a formulation comprising a solution of 33% cholecalciferol (resin form) in the glycol ether, DGMEE. Each animal was given a dose of about 3 ml of the formulation by topical administration to the back of the animal using a calibrated syringe. Each of the animals died within six days of receiving the formulation. The first rat, a male weighing 122 grams, weighed 106 grams at death. The second rat, a female weighing 108 grams, weighed 98 grams at death. The third rat, a male weighing 97 grams, weighed 90 grams at death.

laboratory rats = assay: Initial topical test of 4% w/v formulation on laboratory rats; assay type: in vivo; settings: 4% w/v cholecalciferol in absolute alcohol, 0.5 ml per animal
Source text: (§1) A formulation of the present invention was initially prepared and tested on mice and laboratory rats to determine the viability of the invention. The formulation contained cholecalciferol in an amount of 4% w/v and absolute alcohol. […] These studies are described in the following examples.

Ferret = assay: Dermal application of cholecalciferol, Example 1 study (Table 1); assay type: in vivo; settings: 2.0 ml of 40% cholecalciferol in absolute alcohol, topical; animal 902 g
Description: (§2) Two formulations of the invention were prepared both containing cholecalciferol in solution with absolute alcohol. One of the formulations contained cholecalciferol in an amount of 20% w/v. The other formulation contained cholecalciferol in an amount of 40% w/v. The formulation was topically applied to several animal pest species in varying amounts and the animals were studied.

Bush Rat (Rattus rattus) = assay: as above; assay type: in vivo; settings: 1.0 ml of 20% cholecalciferol in absolute alcohol, topical; animal weight unknown
Description: as §2

Rabbit = assay: as above; assay type: in vivo; settings: 2.0 ml of 20% cholecalciferol in absolute alcohol, topical; animal 2.6 kg
Description: as §2

[1] = system: Lab Rat (Rattus norvegicus); assay: as above; assay type: in vivo; settings: 0.5 ml of 20% cholecalciferol in absolute alcohol, topical; animal weight unknown
Description: as §2

Hedgehog = assay: as above; assay type: in vivo; settings: 1.5 ml of 20% cholecalciferol in absolute alcohol, topical; animal 515 g
Description: as §2

Weasel = assay: as above; assay type: in vivo; settings: 1.5 ml of 40% cholecalciferol in absolute alcohol, topical
Description: as §2

[2] = Cholecalciferol concentration of test solution by normal phase liquid chromatography (stability of formulation); assay type: physicochemical
Description: To confirm the cholecalciferol concentration present and enable accurate exposure calculations when the test solution was applied to the stoats, a sub-sample (approximately 20 ml) of this solution was taken for analysis. Cholecalciferol concentration was determined by taking a sample of liquid which was warmed, mixed and 0.2 g weighed into a volumetric flask 30 ml of toluene was added, and this solution was sonicated without heating and made up to volume. The solution was diluted with hexane/isopropyl alcohol, filtered and analysed against an internal standard by normal phase liquid chromatography.
The test solution was analysed as containing 30% cholecalciferol with an uncertainty of 5%. This was lower than the nominal 40% cholecalciferol in the solution indicated by the analysis carried out the day after the solution was prepared. The assay was carried out on a sub-sample of solution taken 7 days after preparation, and also following the extraction of 6×1.5 ml aliquots of the solution for application to stoats.
This may mostly have occurred on exposure to air when aliquots of solution were drawn from the container for application to the stoats. Cholecalciferol preparations are sensitive to light and exposure to air, with oxidation and inactivation occurring over a few days in the presence of moist air. However, it is noted that even at a 30% concentration, the solution contained sufficient cholecalciferol to deliver an effective lethal dose to all six stoats in 1.5 ml.

mice = assay: Initial topical test of 4% w/v formulation on mice; assay type: in vivo; settings: 4% w/v cholecalciferol in absolute alcohol, 0.5 ml per animal
Source text: as §1

weasels = assay: Proof of concept trial on wild weasels (Example 3 study); assay type: in vivo
Source text: Three wild weasels were caught for a proof of concept trial to determine if the formulation of the invention would be effective as a humane method of killing these pests. The weasels were caged separately in individual waterproof, roofed, wired enclosures of approximately 1 m^2. The animals were fed on raw meat, by simply placing the meat on a wire hooked into the side of the cages. In eating the animals simply pulled on and chewed the meat. Drinking water was available. Within each enclosure was a small box of 25×25 cm with a mesh roof. A vertical sliding door could be removed to provide an entrance to the enclosure and the enclosure was half filled with nesting material of hay. It was observed that the animals covered themselves in the hay and made pathways through it.
Each of the animals was then treated with a formulation comprising 32% cholecalciferol (resin form) in solution with the glycol ether, DGMEE, and observations were made.
The first animal, a male weasel weighing 157 grams, was treated by application of 1 ml of the formulation using a syringe to the back of the animal. This weasel died within 44 hours of application of the formulation.
The second animal, a female weasel weighing 94 grams, was treated using an eradication apparatus as described above. The electronically activated apparatus was placed into the cage of the animal. The apparatus comprised of a tunnel, including a sensing means comprising two pairs of sensors, and a tracking card to record the footprints of the weasel to establish that the animal had passed through the tunnel. An automatic dispensing means was operatively connected to the tunnel, so that when the weasel passed through the tunnel and the two pairs of sensors were covered ,simultaneously, the dispensing , means was automatically activated to deliver the formulation to the animal. In this manner, approximately 0.9 ml of the cholecalciferol formulation was applied to the back of the weasel as it passed through the tunnel of the apparatus. It was observed that some of the formulation was present on the tracking card so the weasel had not received the total volume of the formulation. The weasel died approximately 50 hours after receiving the formulation.
The third animal, a male weasel weighing 54 grams was treated by squirting approximately 1 ml of the formulation onto the back of the animal using a hand held syringe. This weasel died within about 39 hours of application of the formulation.

stoats = assay: Dermal application of test solution to wild-caught stoats (Example 2 study); assay type: in vivo
Description: A test solution of approximately 100 ml was formulated, containing Vitamin D3 (cholecalciferol) resin in the solvent absolute alcohol. The concentration of cholecalciferol in the solution was about 40% w/v. The formulation was designed to kill stoats.
Wild-caught adult stoats (three male and three female) were housed in outdoor cages (60×150×90 cm). Each stoat was provided with a nest box (40×33×15 cm) containing shredded paper as nesting material. Stoats were fed a rotation of, dead day-old chicks, chicken pet mince and mutton/beef pet mince in the afternoon and had free access to water.
They were acclimatised to captivity for at least 5 months prior to being used in the trial. The stoats were lightly anaesthetised with isoflurane, weighed and then had 1.5 ml of the test solution applied to their skin and fur, using a syringe to deliver a line of solution along the spine from the nape to the base of the tail. This was a ‘high exposure’ simulation of the manner in which the delivery system would apply a toxic solution to the fur and skin of stoats.
After application of the solution, the stoats were placed into large nest boxes which were lined with paper but without bedding material, to facilitate observation. Dark Perspex lids were kept on the nest boxes to minimise disturbance of stoats by human observers. The stoats were monitored constantly through recovery from anaesthesia and then for the next three hours to record their responses to the solution on their coats and document any behaviour associated with its presence e.g. grooming, rubbing or rolling. After the three hour observation period in the boxes, stoats were returned to their outdoor cages with nesting material, food and water freely available. […] After this, observations of each stoat were recorded once daily, noting any signs of illness that are associated with cholecalciferol poisoning, e.g. stop feeding, significant body weight loss. Where any signs of illness occurred, the monitoring was to be increased to twice daily (morning and afternoon).
Feed intakes of the stoats were visually estimated for at least three days prior to dosing, i.e. ration all eaten, half eaten, quarter eaten, none eaten. Food intake was similarly noted daily after dosing through until death or 21 days (whichever occurred first). Stoats were weighed at least once a week after dosing, through to death or 21 days (which ever occurred first). Any stoats that died during the 21 day observation were to be retained for necropsy. Typical signs of poisoning (inappetance combined with significant body weight loss) were used as an alternative endpoint for the trial, with a weight loss greater than 25% of bodyweight at dosing triggering euthanasia. Stoats that survived the 21 day observation were to be euthanized.

[3] = Stoat Female 407, 193 g at dosing, 2331 mg/kg dermal
[4] = Stoat Male 391, 235 g at dosing, 1914 mg/kg dermal
[5] = Stoat Male 415, 382 g at dosing, 1178 mg/kg dermal
[6] = Stoat Male 419, 359 g at dosing, 1253 mg/kg dermal

Structure (SMILES): C=C1CC[C@H](O)C/C1=C/C=C1\CCC[C@]2(C)[C@@H]([C@H](C)CCCC(C)C)CC[C@@H]12 [cholecalciferol]
- weight at death (Rattus rattus (bush rat); first rat, male weighing 122 grams, about 3 ml of 33% cholecalciferol in DGMEE): 106 grams
- hair loss at application site (Rattus rattus (bush rat); over the first few days of treatment, about 3 ml of 33% cholecalciferol in DGMEE): hair loss was observed on all of the animals
- weight at death (Rattus rattus (bush rat); second rat, female weighing 108 grams, about 3 ml of 33% cholecalciferol in DGMEE): 98 grams
- weight at death (Rattus rattus (bush rat); third rat, male weighing 97 grams, about 3 ml of 33% cholecalciferol in DGMEE): 90 grams
- time to death (Rattus rattus (bush rat); three bush rats, about 3 ml of 33% cholecalciferol (resin) in DGMEE, topical to the back): six
- death of the animal (laboratory rats): death of the animal occurred within a reasonably short time frame
- Observations: time to death (Ferret): within 48 hours
- Observations: time to death (Bush Rat (Rattus rattus)): within 40 hours
- Observations: time to death (Rabbit): within 2 days
- Observations: time to death [1]: within 72 hours
- Observations: time to death (Hedgehog): within 25 hours
- Observations: time to death (Weasel; animal 116 g): within 43 hours
- Observations: time to death (Weasel; animal 139 g): within 36 hours
- cholecalciferol concentration of test solution (nominal) ([2]; analysis carried out the day after the solution was prepared, absolute alcohol): 40%
- change of cholecalciferol concentration in test solution ([2]; during the 7 days from preparation to application): slight decline
- cholecalciferol concentration of test solution ([2]; sub-sample taken 7 days after preparation, after extraction of aliquots, uncertainty of 5%, absolute alcohol): 30%
- death of the animal (mice): death of the animal occurred within a reasonably short time frame
- appetite after application (weasels; female weasel 94 grams, approximately 0.9 ml of 32% cholecalciferol in DGMEE): lost its appetite
- time to death (weasels; female weasel 94 grams, approximately 0.9 ml of 32% cholecalciferol in DGMEE via eradication apparatus, not total volume received): approximately 50 hours
- time to death (weasels; male weasel 54 grams, approximately 1 ml of 32% cholecalciferol in DGMEE by hand held syringe): ≤ 39 h
- time to death (weasels; male weasel 157 grams, 1 ml of 32% cholecalciferol (resin) in DGMEE by syringe to the back): ≤ 44 h
- food consumption after application (weasels; male weasel 157 grams, 1 ml of 32% cholecalciferol in DGMEE): ate only a small quantity of what it had previously been consuming
- % weight loss at death (stoats; Stoat Female 407, 2331 mg/kg dermal): 46%
- Fate (days after dosing) (stoats; Stoat Female 407, 193 g at dosing, 1.5 ml test solution, estimated exposure 2331 mg/kg): died (12)
- Weight at day 7 (stoats; [3]): 151 g
- Weight at day 12 (stoats; [3]): 112 g
- % weight loss at death (stoats; Stoat Female 413, 2486 mg/kg dermal): 44%
- Fate (days after dosing) (stoats; Stoat Female 413, 181 g at dosing, 1.5 ml test solution, estimated exposure 2486 mg/kg): died (11)
- Weight at day 7 (stoats; Stoat Female 413, 181 g at dosing, 2486 mg/kg dermal): 120 g
- % weight loss at death (stoats; Stoat Female 414, 2205 mg/kg dermal): 13%
- Fate (days after dosing) (stoats; Stoat Female 414, 204 g at dosing, 1.5 ml test solution, estimated exposure 2205 mg/kg): died (4)
- % weight loss at death (stoats; Stoat Male 391, 1914 mg/kg dermal): 30%
- Fate (days after dosing) (stoats; Stoat Male 391, 235 g at dosing, 1.5 ml test solution, estimated exposure 1914 mg/kg): euthanized (12)
- Weight at day 7 (stoats; [4]): 188 g
- Weight at day 12 (stoats; [4]): 166 g
- % weight loss at death (stoats; Stoat Male 415, 1178 mg/kg dermal): 36%
- Weight at day 7 (stoats; [5]): 296 g
- Weight at day 12 (stoats; [5]): 254 g
- Fate (days after dosing) (stoats; Stoat Male 415, 382 g at dosing, 1.5 ml test solution (nominal 40%, assayed 30%, absolute alcohol), estimated exposure 1178 mg/kg): euthanized (12)
- % weight loss at death (stoats; Stoat Male 419, 1253 mg/kg dermal): 37%
- Weight at day 7 (stoats; [6]): 277 g
- Weight at day 12 (stoats; [6]): 253 g
- Fate (days after dosing) (stoats; Stoat Male 419, 359 g at dosing, 1.5 ml test solution, estimated exposure 1253 mg/kg): euthanized (12)
- inappetance (stop feed effect) (stoats; from the first night after dosing, generally eating less than half of rations each day): All six stoats showed inappetance
- effective lethal dermal exposure (in excess of or equal to a dermal LD99 value) (stoats; lower end of exposure range in stoats, test solution in absolute alcohol): 1178 mg/kg
- cages with vomitus present (stoats; morning after return to outdoor cages, 1.5 ml test solution): three of the 6
- mortality (number of stoats) (stoats; six stoats, over 12 days after dosing, 1.5 ml test solution): three
- necropsy findings (stoats; stoats that died): no gross evidence of calcification/mineralisation or lung damage
- time of euthanasia after dosing (weight loss endpoint), male stoats (stoats; three male stoats, 1.5 ml test solution, 1178-1914 mg/kg): 12 days

— patent publication US20110257135A1, “TOPICAL PESTICIDE FORMULATION” (priority 2008, published 2011)
